Results taken from patent US12037361B2, “Methods for treating multidrug resistant breast cancer” (THE HONG KONG POLYTECHNIC UNIVERSITY, priority 2021, dated 2024).

What was measured:
[1] = In vivo toxicity test in Balb/c mice; settings: healthy Balb/c mice, DOX 1.2 mg/kg i.v. once every two days, 10 injections
Protocol: (P) In Vivo Toxicity Test in Balb/c Mice:
Healthy female Balb/c mice (6-8 weeks old) were randomized into 3 groups and were administered with (1) DOX 1.2 mg/kg i.v., (2) DRI-TAT-SP 25 mg/kg i.v, and (3) DOX 1.2 mg/kg+DRI-TAT-SP 25 mg/kg i.v. once every two days (q2d) for 10 injections via tail vein injection. The body weight of the mice was measured once every 2 days. Any toxicity symptoms including body weight change and behavioral changes will be monitored.

[2] = test system: MCF7 human breast cancer xenograft; assay: In vivo efficacy study in MCF7 breast cancer xenograft model
Protocol: Data obtained are analyzed to evaluate treatment outcomes. Tumor doubling time is calculated using tumor volumes obtained from the end of experiment versus the tumor volumes on the first day of treatment. Tumor inhibition (%) is calculated using the tumor volumes obtained from the end of experiment. Corresponding equations of determining tumor inhibition (T/C) and tumor doubling time (Td) are provided as follows:
(Q) In Vivo Efficacy Study of DRI-TAT-SP Combined with DOX in Treating MCF7 Breast Cancer Xenograft Model:
Six- to eight-week-old female Balb/c nude mice were maintained under specific pathogen-free conditions prior to in vivo efficacy study. Each animal was implanted with a piece of […] pellet 0.72 mg, 60-day release. (Cat No. SE-121, Innovative Research of America, Sarasota, FL). Four days later, the nude mice were inserted at the both flanks with a sesame sized (around 10 mm^3) MCF-7 tumor piece originated from a tumor bulk. When the tumor reached approximately 100 mm^3 (21-28 days), the mice were randomized and administered intravenously with (1) 1×PBS, (2) DOX 1.2 mg/kg, (3) DRI-TAT-SP 25 mg/kg or (4) DOX 1.2 mg/kg+DRI-TAT-SP 25 mg/kg once every 2 days for a total of 10 injections. Tumor volume was measured using digital caliper once every 4 days. Estimated tumor volume (mm^3) was calculated as ½×length (mm)×width (mm)^2. The mouse body weights were recorded once every two days. The tumor doubling time (Td) was calculated as t×log 2/log(Vf/V0), where t, Vf and V0 stand for interval time, percentage change of tumor volume on final day and percentage change of tumor volume on initial day.

COc1cccc2c1C(=O)c1c(O)c3c(c(O)c1C2=O)C[C@@](O)(C(=O)CO)C[C@@H]3O[C@H]1C[C@H](N)[C@H](O)[C@H](C)O1 [Doxorubicin, reference compound]
body weight change [1]: +0.6±2.4%
No. of toxicity death ([2]; MCF7 xenograft nude mice, deaths/animals): 0/8
tumor volume at end of study ([2]; MCF7 xenograft, 20 days, DOX 1.2 mg/kg, DRI-TAT-SP 25 mg/kg): 270±73 mm^3
Tumor inhibition (%) ([2]; MCF7 xenograft, i.v. once every 2 days, 10 injections in 20 days, DOX 1.2 mg/kg, DRI-TAT-SP 25 mg/kg): 21.5%
